Data taken from patent US10398663B2, “Mitochondrial delivery of 3-bromopyruvate” (priority 2014, dated 2019).

Key:
Format in all cases: cell-based, Human
PC3 cells [1] = test: MTT assay, PC3 cells; conditions: with respect to 3-BP, 72 h
Procedure: (§1) Human prostate cancer PC3, DU145 cells and RAW 264.7 macrophages were procured from the American type culture collection (ATCC). DU145 cells were grown at 37° C. in 5% CO2 in Eagle's minimum essential medium (EMEM) supplemented with 10% fetal bovine serum (FBS) and 1% penicillin/streptomycin. PC3 cells were grown in Roswell Park Memorial Institute (RPMI) 1640 medium supplemented with 10% FBS and 1% penicillin/streptomycin. RAW 264.7 macrophages were cultured in RPMI media supplemented with 10% FBS and 1% penicillin/streptomycin. Cells were passed every 3 to 4 days and restarted from frozen stocks upon reaching pass number 20.
(§2) Cytotoxicity profiles of T-AuNPs, NT-AuNPs, T-3-BPAuNPs, NT-3-BP-AuNPs, and 3-BP were studied using the MTT assay against prostate cancer PC3 and DU145 cell lines. Cells (2000 cells/well) were seeded on a 96-well plate in 100 μL of desired medium and incubated for 24 h. The cells were then treated with different constructs at varying concentrations and incubated for 12 h at 37° C. and the media was changed. […] The medium was removed, the cells were lysed with 100 μL of DMSO, and the absorbance of the purple formazan was recorded at 550 nm using a Bio-Tek Synergy HT microplate reader and background absorbance was measured at 800 nm. […] Cytotoxicity was expressed as mean percentage […] relative to the unexposed control±standard deviation (SD). […]

DU145 cells = test: MTT assay, DU145 cells; conditions: with respect to 3-BP, 72 h
Procedure: as §1, §2

PC3 cells [2] = test: Apoptosis detection by flow cytometry (Annexin V-PI); conditions: 6 h, dark
Procedure: PC3 cells were plated at a density of 1×10^6 cells/mL and allowed to grow for 14 h. Media was changed and cells were treated with T-AuNP (1 mg/mL), NT-AuNP (1 mg/mL), T-3-BP-AuNP (14.1 μg/mL with respect to NP, 10 μM with respect to 3-BP), NT-3-BP-AuNP (13.7 μg/mL with respect to NP, 10 μM with respect to 3-BP), free 3-BP (10 μM or 1 mM) for 6 h at 37° C. As positive controls, etoposide (100 μM, incubation time: 12 h) for apoptosis and H2O2 (1 mM, incubation time: 45 min) for necrosis were used. For apoptosis detection after laser treatment, cells were treated with T-AuNP (1 mg/mL), NT-AuNP (1 mg/mL), T-3-BP-AuNP (14.1 μg/mL with respect to NP, 10 μM with respect to 3-BP), NT-3-BP-AuNP (13.7 μg/mL with respect to NP, 10 μM with respect to 3-BP), free 3-BP (10 μM) for 4 h at 37° C., irradiated with laser of 660 nm for 1 min, and further incubated for 12 h. […] Cells were counted and resuspended in 1× annexinbinding buffer at a density of ˜1×10^6 cells/mL preparing a sufficient volume to have 100 μL per assay. To 100 μL of cell suspension, 5 μL Alexa Fluor® 488 annexin V and 1 μL 100 μg/mL PI working solution were added, incubated for 15 min at room temperature, followed by addition of 400 μL 1× annexin-binding buffer, gently mixing in ice, and the samples were analyzed on the flow cytometer immediately.

PC3 cells [3] = test: Lactate determination; conditions: 10 μM with respect to 3-BP, 6 h
Procedure: PC3 cells were seeded at a density of 1×10^6 cells/mL and allowed to grow for 12 h at 37° C. under 5% CO2. Cells were treated with T-AuNP (1 mg/mL), NT-AuNP (1 mg/mL), T-3-BP-AuNP (14.1 μg/mL with respect to NP, 10 μM with respect to 3-BP), NT-3-BP-AuNP (13.7 μg/mL with respect to NP, 10 μM with respect to 3-BP), free 3-BP (10 μM) for 6 h at 37° C. After 6 h, the media was removed and the cells were homogenized. The lysate and the media supernatant were added to the enzyme and substrate working reagent mixture and incubated for 30 min. Lactate concentration was measured using Bio-Tek Synergy HT microplate reader at 450 nm and comparing to a standard curve.

PC3 cells [4] = test: CellTiter-Glo luminescent ATP quantification; conditions: 10 μM with respect to 3-BP, 6 h
Procedure: PC3 cells were seeded at a density of 1×10^6 cells/mL in a 12 well plate and allowed to grow for 12 h at 37° C. under 5% CO2. Cells were treated with T-AuNP (1 mg/mL), NT-AuNP (1 mg/mL), T-3-BP-AuNP (14.1 μg/mL with respect to NP, 10 μM with respect to 3-BP), NT-3-BP-AuNP (13.7 μg/mL with respect to NP, 10 μM with respect to 3-BP), free 3-BP (10 μM) for 6 h at 37° C. in 5% CO2 atmosphere. Control wells containing medium without cells were used to obtain background luminescence value. Plates were then equilibrated at room temperature for ˜30 min. A volume of CellTiter-Glo reagent equal to the volume of cell culture medium present in each well was added, this mixtures were mixed for 2 min in a shaker to induce cell lysis. The plates were incubated at room temperature for additional 10 min to stabilize luminescent signal. Luminescence was recorded using a plate reader. ATP quantification was carried out from a standard curve using ATP disodium salt hydrate.

PC3 cells [5] = test: Bioenergetic assay (Seahorse XF24, ECAR and OCR); conditions: 10 μM with respect to 3-BP, 6 h
Procedure: Prior to the assay, XF sensor cartridges were hydrated. To each well of an XF utility plate, 1 mL of Seahorse Bioscience calibrant was added and the XF sensor cartridges were placed on top of the utility plate, and kept at 37° C. incubator without CO2 for a minimum of 12 h. PC3 cells were cultured in XF24-well cell culture microplates (Seahorse Bioscience) at a density of 5×10^4 cells/well (0.32 cm2) in 200 μL growth medium and then incubated for 24 h at 37° C. in 5% CO2 atmosphere. The three key parameters of glycolytic function: glycolysis, glycolytic capacity, and glycolytic reserve were assessed using a Seahorse XF glycolysis stress kit. After the cells were attached, an additional 100 μL growth medium was added and the cells were incubated for 24 h at 37° C. in 5% CO2 atmosphere. […] The OCR and the ECAR were measured simultaneously for 16 min to establish a baseline rate. Glycolysis, glycolytic capacity, and glycolytic reserve were calculated by subtracting the average rates before and after the addition of glucose (10 mM), ATP synthase inhibitor oligomycin (1.0 μM), and 2-deoxy-D-glucose (2-DG) (100 mM). These three compounds were injected consecutively with specific time gap and ECAR values were measured after each injection. […]

For O=C(O)C(=O)CBr [3-BP, 3-bromopyruvate], the IC50 (PC3 cells [1]) was 271 ± 9 µM, the IC50 (DU145 cells) was 541 ± 37 µM and the apoptotic activity (PC3 cells [2]; 10 μM) was “unable to show any apoptotic activity”. For the same compound, the apoptotic activity (PC3 cells [2]; 1 mM) was “significant apoptosis”, the extracellular lactate level (PC3 cells [3]) was “declined” and the intracellular lactate level (PC3 cells [3]) was “declined”. The “level of ATP” value (PC3 cells [4]) was “decrease” and the “glycolysis inhibition (ECAR response to glucose)” value (PC3 cells [5]) was “did not show any glycolysis inhibitory effect”.
